In PMC9739815, “Akt/mTOR Targeting Activity of Resveratrol Derivatives in Non-Small Lung Cancer” (Molecules, 2022):

Legend:
H460 cells = test: MTT cell viability assay, H460 cells; assay type: cell-based; conditions: Homo sapiens, NCI-H460, 24 h, 0–200 µM, read-out: IC50 ± SEM of NSCLC cells, H460
Method: (§1) NSCLC cells were cultured overnight and treated with various concentrations (0–200 µM) of resveratrol derivatives (RD1-RD5) and resveratrol for 24 h, and then cell viability was analyzed by the 3-(4, 5-dimethylthiazolyl-2)-2, 5-diphenyltetrazolium bromide (MTT) assay to evaluate the percentage of cell viability. All of the data were calculated on the basis of the results of three replicated samples. […] The difference of the structure at C-4 was that the hydroxyl group of RD2 was modified to the methoxy group of RD3 and at C-3, the methoxy group of RD2 was changed to the hydroxyl group of RD3. […] Furthermore, resveratrol decreased cell viability in NSCLC cells (A549, H23, and H460) with the IC50 at more than 200 µM which was the same RD3 (Figure 2a–d). This different action on cancer cells as a result of chemical structure modification has provided an insight for the structure–activity relationship that may facilitate the further development of the potent compound from the lead structure of resveratrol derivatives. Cell viability was investigated by MTT colorimetric assay. All cell lines were cultured at the density of 1 × 10^4 cells per well in a 96-well tissue culture plate and incubated in an incubator. After that, cells were treated with various concentrations of RD1-RD5 for 24 h at 37 °C and analyzed by the MTT assay according to the manufacturer’s protocol (Sigma Chemical, St. Louis, MO, USA). In calculating the cell viability by a microplate reader (Anthros, Durham, NC, USA), the measured absorbance of treated cells were divided by the value of untreated cells and are reported as a percentage.

A549 cells = test: MTT cell viability assay, A549 cells; assay type: cell-based; conditions: Homo sapiens, 24 h, 0–200 µM, read-out: IC50 ± SEM of NSCLC cells, A549
Method: as §1

H23 cells = test: MTT cell viability assay, H23 cells; assay type: cell-based; conditions: Homo sapiens, NCI-H23, 24 h, 0–200 µM, read-out: IC50 ± SEM of NSCLC cells, H23
Method: as §1

p-mTOR/mTOR in H23 cells = test: Western blot of p-mTOR/mTOR, H23 cells; assay type: cell-based, human; conditions: 100 μM, 12 h, vs untreated control
Method: (§2) NSCLC cells (A549 and H23) were treated with RD2 and RD3 (10–100 μM) for 12 h. After which, all cells were collected and the expression levels of Akt, p-Akt, mTOR, and p-mTOR were investigated by Western blot analysis (Figure 5a, Figure 6a, Figure 7a and Figure 8a). […] Immunofluorescence staining of Akt, p-Akt, mTOR, and p-mTOR was performed in RD2 and RD3 treated cells. The results further confirm the effect of RD2 and RD3 on the Akt/mTOR pathway.
(§3) Western blotting was used to detect the presence of specific protein. Cells were seed at a density of 4 × 10^5 cells/well in 6 well plates overnight. Cells were treated with various concentrations RD1-RD5 were treated for 12 h. After treatment, the apoptosis cells were collected by centrifuging media with 1500 rpm for 5 min and aspirating supernatants. Then, cells were washed with cold 1× PBS and incubated with 1X RIPPA 40 µL containing 10× RIPA buffer 100 µL, protease inhibitors (PI) 100 µL, PMSF 10 µL, and Triton × 10 µL for 30 min on ice. BCA protein assay kit from Pierce Biotechnology (Rockford, IL, USA) analyzed protein concentrations. The extracted proteins were separated by 7.5–10% sodium dodecyl sulfate polyacrylamide gel electrophoresis (SDS-PAGE) and transferred to polyvinylidene difluoride membrane (PVDF). Then, the membranes were blocked with 5% non-fat milk powder for 2 h. After that, they were incubated with primary antibody at 4 °C Akt (#9272), phosphorylated Akt (#4060), mTOR (#2983S), and p-mTOR (#5536S) overnight. The membranes were washed with Tris-buffered saline/Tween 20 3 times and incubated with secondary antibodies for 2 h. Finally, the protein bands were detected using chemiluminescence substrate and exposed by Chemiluminescent ImageQuant LAS4000. Protein bands were analyzed using Image J software.

[1] = system: p-mTOR/mTOR in A549 cells; test: Western blot of p-mTOR/mTOR, A549 cells; assay type: cell-based, human; conditions: 100 μM, 12 h, vs untreated control
Method: as §2, §3

DP cells = test: MTT cell viability assay, normal dermal papilla (DP) cells; assay type: cell-based; conditions: 24 h
Method: To confirm the selective cytotoxicity of resveratrol derivatives (RD2 and RD3) in cancer cells, resveratrol derivatives (RD2 and RD3) and resveratrol were determined for the cytotoxic profile in normal human cells, dermal papilla (DP).
Cell viability was investigated by MTT colorimetric assay. All cell lines were cultured at the density of 1 × 10^4 cells per well in a 96-well tissue culture plate and incubated in an incubator. After that, cells were treated with various concentrations of RD1-RD5 for 24 h at 37 °C and analyzed by the MTT assay according to the manufacturer’s protocol (Sigma Chemical, St. Louis, MO, USA). In calculating the cell viability by a microplate reader (Anthros, Durham, NC, USA), the measured absorbance of treated cells were divided by the value of untreated cells and are reported as a percentage.

p-Akt/Akt in H23 cells = test: Western blot of p-Akt/Akt, H23 cells; assay type: cell-based, human; conditions: 100 μM, 12 h, vs untreated control
Method: as §2, §3

p-Akt/Akt in A549 cells = test: Western blot of p-Akt/Akt, A549 cells; assay type: cell-based, human; conditions: A549 cells, 100 μM, 12 h, vs untreated control
Method: as §2, §3

COc1ccc(CCc2cc(OC)c(O)c(OC)c2)cc1O [RD4, 4-(3-hydroxy-4-methoxyphenethyl)-2,6-dimethoxyphenol]
IC50 (H460 cells): 122 ± 28.6 µM | IC50 (A549 cells): 113 ± 25.5 µM | IC50 (H23 cells): 109 ± 17.3 µM

COc1cc(CCc2cc(OC)c(O)c(OC)c2)cc(OC)c1O [RD5, 4,4′-(ethane-1,2-diyl)bis(2,6-dimethoxyphenol)]
IC50 (H460 cells): 153 ± 59.6 µM | IC50 (A549 cells): 185 ± 58.7 µM | IC50 (H23 cells): 82.6 ± 13.1 µM

Oc1ccc(C=Cc2cc(O)cc(O)c2)cc1 [Resveratrol, 3,5,4′-trihydroxystilbene]
p-mTOR/mTOR protein expression levels (p-mTOR/mTOR in H23 cells): significant decrease | p-mTOR/mTOR protein expression levels [1]: significant decrease | effect on cell viability percentages in DP cells (DP cells; normal human dermal papilla cells): did not significantly affect | IC50 (DP cells; Human dermal papilla cell, 0–200 µM, read-out: IC50 ± SEM of DP cells): > 200 µM | IC50 (H460 cells): > 200 µM | p-Akt/Akt protein expression levels (p-Akt/Akt in H23 cells): significant decrease | IC50 (A549 cells): > 200 µM | IC50 (H23 cells): > 200 µM | p-Akt/Akt protein expression levels (p-Akt/Akt in A549 cells): significant decrease
